One assay deals with human sebocytes. Nature of the assay: Inhibition of sebocyte lipogenesis (14C-acetate incorporation). Type of assay: cell-based. The settings on record: for inhibition of lipogenesis (result in words): summary of Tables 2 and 3. As to the method: This example provided data on inhibition of sebocyte lipogenesis.
Secondary cultures of human sebocytes obtained from an adult […] were grown in 48-well tissue culture plates (Costar Corp.; Cambridge, Mass.) or 96-well tissue culture plates (Packard Co.; Meriden, Conn.) until confluent. Sebocyte growth medium consisted of Clonetics Keratinocyte Basal Medium (KBM) 5 supplemented with 14 μg/ml bovine pituitary extract, 0.4 μg/ml hydrocortisone, 5 μg/ml insulin, 10 ng/ml epidermal growth factor, 1.2×10^−10 M cholera toxin, 100 units/ml penicillin, and 100 μg/ml streptomycin. All cultures were incubated at 37° C. in the presence of 7.5% CO2. Medium was changed three times per week.
On the day of experimentation, the growth medium was removed and the sebocytes washed three times with sterile Dulbecco's Modified Eagle Medium (DMEM; phenol red free). Fresh DMEM was added to each sample (duplicates, triplicates, or quadruplicates depending on the experiment) with 5 μL of test agent solubilized in ethanol or sterile, distilled water either alone or in the presence of one or 10 μM of retinol. Controls consisted of addition of ethanol alone, retinol alone or phenol red, which has estrogen-like activity and was included as a positive control.
Each plate was returned to the incubator for 20 hours followed by the addition of ^14C-acetate buffer (5 mM final concentration, 56 mCi/mmol specific activity). Sebocytes were returned to the incubator for four hours after which each culture was rinsed three times with phosphate buffered saline to remove unbound label. Radioactive label remaining in the sebocytes was harvested and counted using a Beckman scintillation counter.

The subject of assay [1] is procollagen I production by neonatal human dermal fibroblasts. The experiment in a line: Procollagen I production by fibroblasts (slot blot, densitometry). The assay is classed as cell-based. The settings on record: for Average OD Reading / Fold increase Over Control: Table 4; for Average OD Reading: procollagen I densitometer reading, control 0.783; for Fold increase Over Control / % Increase (+) or % decrease (−) over control: procollagen I; for % Increase (+) or % decrease (−) over control: positive control, concentration not given. As to the method:
This example measured production of procollagen I by fibroblasts in response to treatment with various straight chain and branched alcohols alone.
Neonatal human dermal fibroblasts were purchased from Clonetics Corp., San Diego, Calif. All materials for cell culture were purchased from Life Technologies, N.Y. (and used in passages 5-10). Cells were seeded at a density of approximately 10,000/well in the inner 48 wells of a 96-well plate in a medium containing DMEM (Dulbecco's Modified Eagle's Medium), high-glucose supplemented with 2 mM L-glutamine, 10% fetal bovine serum, and antibiotic and antimycotic solutions. Cells were then grown to confluence for 2 days. At confluence, the medium was removed and cells were washed with serum-free DMEM, and each well dosed with 200 μl of a solution of a test compound in serum-free DMEM. Each dosing was replicated in a total of six wells. […] After 24 hours, the test compound solution or the control solution was removed and cells redosed with 100 μl of a solution of a test compound in serum-free DMEM.
Nitrocellulose membrane and 3 sheets of filter paper were soaked in TRIS buffered saline (TBS, pH 7.3.). BioRad slot blot apparatus (BioRad Labs, CA) was set up with 3 sheets filter paper on bottom, membrane on top, and tightened. […] TBS was added per well. Vacuum was used to suck TBS through membrane. The test compound solution or control was vortexed, then 100 μl was loaded per well and gravity filtered. Procollagen from the test solution was bound to the membrane at this point in the procedure. Membrane was removed from the apparatus, excess cut off, and bottom right corner notched for orientation. The membrane was placed in blocking solution (5% milk powder in Dulbecco's phosphate buffered saline) overnight at 4° C., with shaking. The membrane was then incubated for 1.5 hrs at room temperature with 1.5 mL Rat Anti-Human Procollagen Amino-Terminal Ab (Chemicon MAB1912) in TBS with 0.1% BSA (Bovine Serum Albumin) (ratio of antibody to buffer/BSA was 1:100) in a sealed bag with shaking. The membrane was then removed; washed 3 times for 5 minutes in TBS/0.1% Tween. The membrane was then incubated for 1 hour at room temperature in 2 mL of Biotinylated Anti-Rat Peroxidase-Conjugated Ab (Vector Labs) in TBS with 0.1% BSA (ratio of antibody to buffer/BSA was 1:1000) in a sealed bag with shaking. The membrane was then stained using the following solution:
12.5 mg 3-amino 9-ethyl carbazole (Sigma)
3.125 (approximately) mL DMF (N,N-dimethylformamide, from Sigma)
The membrane was stained until color developed and the reaction stopped with 2 washes for 10 minutes in tap water. The blot was scanned on a Bio-Rad GS700 Image Analysis densitometer. Percent change from control was calculated from densitometer readings as follows: [(Reading for test compound-Reading for control)/Reading for control]*100. Control has a reading of 100%. Statistical significance (p value) was calculated using student's t-test.
TGF-B is a positive control, ensuring the integrity of the assay: transforming growth factor beta is known to increase procollagen I in fibroblasts.
This example measured production of procollagen I by fibroblasts in response to treatment with various test compounds.
The experiment was conducted as described in Example 1 above. Fold increase was calculated as a ratio of densitometer reading for cells treated with a test compound over control.

Where [2] appears, read: Homo sapiens, Table 2, 14C-acetate label in sebocytes, read-out: % of Control.
Where [3] appears, read: Homo sapiens, Table 3, 14C-acetate label in sebocytes, read-out: % of Control.
Where [4] appears, read: Table 2, 14C-acetate label in sebocytes, 1 μM.
The mark [5] stands for this setting: Table 2, 14C-acetate label in sebocytes, 10 μM.
[6] abbreviates: Table 2, 14C-acetate label in sebocytes, 100 μM.

Read-outs that look alike come from different tables or passages of the source. Marks after values point to notes of the source that are not given here.

On to `O=S1(=O)OC(c2ccc(O)cc2)(c2ccc(O)cc2)c2ccccc21` [Phenol Red, reference compound], for which, in the assay with human sebocytes (setting [2]), the activity at 28 µM came out at 56.5% and the activity at 280 µM worked out at 43.3%. Also, in the assay with human sebocytes (setting [3]), the activity at 28 µM amounted to 92% and the activity at 280 µM was determined as 61.7%.
With `CC1=C(/C=C/C(C)=C/C=C/C(C)=C/CO)C(C)(C)CCC1` [Retinol, reference compound], the activity at 1 µM in the assay on human sebocytes (Homo sapiens, Table 3, 14C-acetate label in sebocytes, 1 μM, read-out: % of Control) was found to be 91.8%. Also, the activity at 10 µM in the assay on human sebocytes (Homo sapiens, Table 3, 14C-acetate label in sebocytes, 10 μM, read-out: % of Control) turned out to be 106%.
In the case of “Iso-tridecyl carboxymethylate (sodium salt)”, the “% of Control” value is on record as 81.5* % in the assay with human sebocytes (setting [4]); 49.6* % with human sebocytes (setting [5]); 1.2* % with human sebocytes (setting [6]); 75.8* % in the assay with human sebocytes (Table 3, 14C-acetate label in sebocytes, 1 μM); 66.0* % in the assay on human sebocytes (Table 3, 14C-acetate label in sebocytes, 10 μM). Moreover, in the assay with human sebocytes, the “inhibition of lipogenesis (result in words)” value was “improved inhibition of lipogenesis”.
For the compound “TGF-B: transforming growth factor beta, positive control known to increase procollagen I in fibroblasts [reference compound]”, in assay [1] (0.001%), the “Average OD Reading” value is reported as 1.348 and the “Fold increase Over Control” value is 1.72* Fold. Also, in assay [1] (Table 1 Experiment 1), the “% Increase (+) or % decrease (−) over control” value was “+50* %”. Besides, the “% Increase (+) or % decrease (−) over control” value in assay [1] (Table 1 Experiment 2) is reported as “+140* %”.
Consider iso-tridecyl carboxymethylate, for which the “Average OD Reading” value stood at 0.777 in assay [1] (0.0001%) and 1.295 in assay [1] (0.001%). For the same compound, the “Fold increase Over Control” value in assay [1] (0.0001%) is 0.99 Fold; in assay [1] (0.001%) it was 1.65* Fold. The “collagen synthesis by fibroblasts (result in words)” value in assay [1] (summary of Tables 1 and 4) is reported as “increased collagen production”. For the same compound, the “% of Control” value is 80.0* % in the assay with human sebocytes (setting [4]), 58.2* % with human sebocytes (setting [5]) and 1.4* % with human sebocytes (setting [6]). The “inhibition of lipogenesis (result in words)” value with human sebocytes is reported as “enhanced inhibition of lipogenesis at all tested concentrations”.

Values taken from patent publication US6534073B2, “Skin care cosmetic compositions containing carboxymethylates of branched alcohols and/or ethoxylates thereof” (Unilever Home & Personal Care USA division of Conopco, Inc., priority 2000, dated 2003).
